# Data as given in patent US8802678B2, “Carbonylated (aza) cyclohexanes as dopamine D3 receptor ligands” (Bioprojet, priority 2006, dated 2014).
row,SMILES,melting point [°C]
1,"CC(=O)CN1CCC(CCN2CCN(c3cccc(C(C)=O)c3)CC2)CC1 [Example 603, 1-(4-{2-[4-(3-Acetylphenyl)-piperazin-1-yl]ethyl}piperidin-1-yl)propan-2-one]",85
2,"CCC(=O)c1cccc(N2CCN(CCC3CCN(CC(C)=O)CC3)CC2)c1 [Example 604, 1-[3-(4-{2-[1-(2-Oxopropyl)piperidin-4-yl]ethyl}piperazin-1-yl)phenyl]propan-1-one]",68
3,"CC(=O)CN1CCC(CCN2CCN(c3cccc(C(C)O)c3)CC2)CC1 (stereo not shown) [Example 606, 1-[4-(2-{4-[3-(1-Hydroxyethyl)phenyl]piperazin-1-yl}ethyl)piperidin-1-yl]propan-2-one]",97
4,"CCC(O)c1cccc(N2CCN(CCC3CCN(CC(C)=O)CC3)CC2)c1 (stereo not shown) [Example 607, 1-[4-(2-{4-[3-(1-Hydroxypropyl)phenyl]piperazin-1-yl}ethyl)piperidin-1-yl]propan-2-one]",83
5,"CC(=O)CN1CCC(CCN2CCN(c3cccc(C(O)C(C)C)c3)CC2)CC1 (stereo not shown) [Example 608, 1-[4-(2-{4-[3-(1-Hydroxy-2-methylpropyl)phenyl]piperazin-1-yl}ethyl)piperidin-1-yl]propan-2-one]",78
6,"CC(=O)CN1CCC(CCN2CCN(c3ccc(C)c(Cl)c3)CC2)CC1 [Example 618, 1-(4-{2-[4-(3-Chloro-4-methylphenyl)piperazin-1-yl]ethyl}piperidin-1-yl)propan-2-one]",103
7,"CC(=O)CN1CCC(CCN2CCN(c3ccc(F)c(Cl)c3F)CC2)CC1 [Example 623, 1-(4-{2-[4-(3-Chloro-2,4-difluorophenyl)piperazin-1-yl]ethyl}piperidin-1-yl)propan-2-one]",82
8,"CC(=O)CN1CCC(CCN2CCN(c3cccc(CO)c3)CC2)CC1 [Example 640, 1-(4-{2-[4-(3-Hydroxymethylphenyl)piperazin-1-yl]ethyl}piperidin-1-yl)propan-2-one]",84
9,"CC(=O)CN1CCC(CCN2CCN(c3ccc4c(c3)CCCCC4)CC2)CC1 [Example 642, 1-(4-{2-[4-(6,7,8,9-Tetrahydro-5H-benzocyclohepten-2-yl)piperazin-1-yl]ethyl}piperidin-1-yl)propan-2-one]",98
10,CC(=O)CN1CCC(CCN2CCN(c3ccc(F)c(F)c3F)CC2)CC1 [Example 656],88
11,"CC(=O)CN1CCC(CCN2CCN(c3ccc(F)c(C#N)c3)CC2)CC1 [Example 659, 2-Fluoro-5-(4-{2-[1-(2-oxopropyl)piperidin-4-yl]ethyl}piperazin-1-yl)benzonitrile]",102
12,"CC(=O)CN1CCC(CCN2CCN(c3cc(F)ccc3F)CC2)CC1 [Example 663, 1-(4-{2-[4-(2,5-Difluorophenyl)piperazin-1-yl]ethyl}piperidin-1-yl)propan-2-one]",90

# More lines, now with the values ahead:
row,melting point [°C],SMILES
1,225,"N#CCC(=O)N[C@H]1CC[C@H](CCN2CCN(c3cc(C#N)ccc3Cl)CC2)CC1 [Example 599, N-(4-{2-[4-(2-Chloro-5-cyanophenyl)piperazin-1-yl]ethyl}cyclohexyl)-2-cyanoacetamide]"
2,206,"N#CCCCC(=O)N[C@H]1CC[C@H](CCN2CCN(c3cc(C#N)ccc3Cl)CC2)CC1 [Example 601, N-(4-{2-[4-(2-Chloro-5-cyanophenyl)piperazin-1-yl]ethyl}cyclohexyl)-4-cyanobutanamide]"
3,257,"NC(=O)CCC(=O)N[C@H]1CC[C@H](CCN2CCN(c3ccc(F)c(Cl)c3F)CC2)CC1 [Example 602, N-(4-{2-[4-(3-Chloro-2,4-difluorophenyl)piperazin-1-yl]ethyl}cyclohexyl)succinamide]"
4,156,"N#CCC(=O)N[C@H]1CC[C@@H](CCN2CCN(c3ccc(C(F)(F)F)cc3)CC2)CC1 [Example 613, 2-Cyano-N-(4-{2-[4-(4-trifluoromethylphenyl)piperazin-1-yl]ethyl}cyclohexyl)acetamide]"
5,177,"COCCCC(=O)N[C@H]1CC[C@H](CCN2CCN(c3cc(C(F)(F)F)ccc3F)CC2)CC1 [Example 616, N-(4-{2-[4-(2-Fluoro-5-trifluoromethylphenyl)piperazin-1-yl]ethyl}cyclohexyl)-4-methoxybutanamide]"
6,238,"NC(=O)CCC(=O)N[C@H]1CC[C@H](CCN2CCN(c3cc(C(F)(F)F)ccc3F)CC2)CC1 [Example 631, N-(4-{2-[4-(2-Fluoro-5-trifluoromethylphenyl)piperazin-1-yl]ethyl}cyclohexyl)succinamide]"
7,207,"N#CCCC(=O)N[C@H]1CC[C@H](CCN2CCN(c3ccc(C(F)(F)F)cc3)CC2)CC1 [Example 643, 3-Cyano-N-(4-{2-[4-(4-trifluoromethylphenyl)piperazin-1-yl]ethyl}cyclohexyl) propanamide]"
8,160,"N#CCCC(=O)N[C@H]1CC[C@H](CCN2CCN(c3cccc(C#N)c3)CC2)CC1 [Example 644, 3-Cyano-N-(4-{2-[4-(3-cyanophenyl)piperazin-1-yl]ethyl}cyclohexyl)propanamide]"
9,212,"N#CCC(=O)N[C@H]1CC[C@H](CCN2CCN(c3ccc(C(F)(F)F)cc3F)CC2)CC1 [Example 645, 2-Cyano-N-(4-{2-[4-(2-fluoro-4-trifluoromethylphenyl)piperazin-1-yl]ethyl}cyclohexyl) acetamide]"
10,165,"N#CCCCC(=O)N[C@H]1CC[C@H](CCN2CCN(c3ccc(C(F)(F)F)cc3F)CC2)CC1 [Example 646, 4-Cyano-N-(4-{2-[4-(2-fluoro-4-trifluoromethylphenyl)piperazin-1-yl]ethyl}cyclohexyl)-butanamide]"
11,203,"COCCCC(=O)N[C@H]1CC[C@H](CCN2CCN(c3ccc(F)c(F)c3F)CC2)CC1 [Example 652, 4-Methoxy-N-(4-{2-[4-(2,3,4-trifluorophenyl)piperazin-1-yl]ethyl}cyclohexyl)butanamide]"
12,176,"N#Cc1cccc(N2CCN(CC[C@H]3CC[C@H](NC(=O)CCC(F)(F)F)CC3)CC2)c1 [Example 653, N-(4-{2-[4-(3-Cyanophenyl)piperazin-1-yl]ethyl}cyclohexyl)-4,4,4-trifluorobutanamide]"
13,185,"N#CCC(=O)N[C@H]1CC[C@H](CCN2CCN(c3ccc(F)c(C#N)c3)CC2)CC1 [Example 660, 2-Cyano-N-(4-{2-[4-(3-cyano-4-fluorophenyl)piperazin-1-yl]ethyl}cyclohexyl)acetamide]"
14,197,"COCCCC(=O)N[C@H]1CC[C@H](CCN2CCN(c3ccc(F)c(C#N)c3)CC2)CC1 [Example 661, N-(4-{2-[4-(3-Cyano-4-fluorophenyl)piperazin-1-yl]ethyl}cyclohexyl)-4-methoxybutanamide]"
15,158,"N#CCCCC(=O)N[C@H]1CC[C@H](CCN2CCN(c3ccc(F)c(C#N)c3)CC2)CC1 [Example 662, 4-Cyano-N-(4-{2-[4-(3-cyano-4-fluorophenyl)piperazin-1-yl]ethyl}cyclohexyl)butanamide]"
16,178,"N#CCC(=O)N[C@H]1CC[C@H](CCN2CCN(c3cc(F)cc(C(F)(F)F)c3)CC2)CC1 [Example 664, 2-Cyano-N-(4-{2-[4-(3-fluoro-5-trifluoromethylphenyl)piperazin-1-yl]ethyl}cyclohexyl)acetamide]"
